Broadly, the IC50 is the concentration that gives 50% inhibition.

IC50 data for 14 compounds are collected here from patent publication US10131679B2, “Substituted dihydropyrrolopyrazole compound” (UBE INDUSTRIES, LTD., priority 2014, dated 2018).

Assay type in all cases: cell-based
Assay [1] relates to human breast cancer cell line (MCF-7). The assay can be described thus: Human breast cancer (MCF-7) cell growth inhibition test. The settings on record: MCF7, 72 h, MCF-7, culture for 3 days, sulforhodamine B absorbance. The protocol: Human Breast Cancer (MCF-7) Cell Growth Inhibition Test
The measurement of a human breast cancer cell growth inhibitory effect was carried out by modifying the method of Simak et al. (Cancer Research, 69, 6208 (2009)).
A human breast cancer cell line (MCF-7) manufactured by DS Pharma Biomedical Co., Ltd., Cat. No. EC86012803, was cultured in MEM (manufactured by GIBCO/Thermo Fisher Scientific, Inc., REF. 11095-080) medium containing 10% FBS (manufactured by GIBCO/Thermo Fisher Scientific, Inc., REF. 10082-147), nonessential amino acids (manufactured by GIBCO/Thermo Fisher Scientific, Inc., REF. 11140-050), and 1% penicillin/streptomycin/amphotericin B (manufactured by GIBCO/Thermo Fisher Scientific, Inc., REF. 15240-096) and inoculated at 3.0×10^3 cells/well to a 96-well plate (manufactured by Corning Inc., REF. 353072). After overnight culture in a carbon dioxide incubator, it was replaced with a fresh MEM medium containing 10% FBS, nonessential amino acids, and 1% penicillin/streptomycin/amphotericin B on the next day, and a test compound dissolved in DMSO (manufactured by Wako Pure Chemical Industries, Ltd., Code No. 043-07216) (final DMSO concentration: 0.1%) was added and left standing in a carbon dioxide incubator. After culture for 3 days, the absorbance of each well was measured by using In Vitro Toxicology Assay Kit Sulforhodamine B based (manufactured by Sigma-Aldrich Co. LLC., Pcode 1001910706).
The rate of inhibition of cell growth at each concentration was calculated from the test compound concentration and the absorbance of sulforhodamine B, and the concentration of the test compound necessary for inhibiting 50% of cell growth (IC50 value) was calculated by using EXSUS (version 8.0.0 or version 8.0.1, manufactured by CAC Exicare Corp.).

Assay [2] has as its system Human keratinocytes (NHEK-Neo Pooled). The assay can be described thus: Human keratinocyte growth inhibition assay. The settings on record: 48 h, culture for 2 days, Cell Counting Kit-8. The procedure, abridged: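 Neonatal pooled NHEK were seeded at 2.0×10^3 cells/well, cultured overnight, then exposed to compound in 0.1% final DMSO for 2 days. Growth was read by CCK-8 absorbance. IC50 was calculated from the concentration–inhibition data.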

For assay [3], the system named is IL-17 production in human PBMC-derived T cells. Nature of the assay: Human PBMC various-stimulant cocktail-induced IL-17 production inhibition test. To be noted: 120 h; human T-cell suspension from PBMC, cocktail of various stimulants, incubation for 5 days, ELISA. An excerpt: Human PBMC Various-Stimulant Cocktail-Induced IL-17 Production Inhibition Test
PBMC was separated and collected by using Ficoll-Paque (17-1440-02 manufactured by GE Healthcare Japan Corp.) from blood collected from healthy human adult in the presence of heparin. The collected PBMC was further cultured in a flask for a certain time, and then, non-adherent cells in the supernatant were collected and used as a T-cell suspension. RPMI1640 medium (manufactured by GIBCO/Thermo Fisher Scientific, Inc., REF. 11875), which is containing 10% FBS (manufactured by GIBCO/Thermo Fisher Scientific, Inc., REF. 10082), 1% penicillin/streptomycin/amphotericin B (manufactured by GIBCO/Thermo Fisher Scientific, Inc., REF. 15240-096), 1% nonessential amino acids (manufactured by GIBCO/Thermo Fisher Scientific, Inc., REF. 11140-050), and 1% pyruvic acid (manufactured by GIBCO/Thermo Fisher Scientific, Inc., REF. 11140) and containing a test compound dissolved in DMSO, 2 μg/mL (final concentration) CD28 antibody (manufactured by BioLegend, Inc., Cat. No. 302914), 10 μg/mL (final concentration) human IFN-γ antibody (manufactured by BD Biosciences, Cat. No. 554698), 10 μg/mL (final concentration) human IL-4 antibody (manufactured by BD Biosciences, Cat. No. 554481), 20 ng/mL (final concentration) human IL-6 (manufactured by BioLegend, Inc., Cat. No. 570802), 10 ng/mL (final concentration) human IL-23 (manufactured by BioLegend, Inc., Cat. No. 574102), 10 ng/mL (final concentration) human IL-1(3 (manufactured by PeproTech Inc., Cat. No. 200-01B), and 10 ng/mL (final concentration) human TGF-13 (manufactured by BioLegend, Inc., Cat. No. 580702), was added at 100 μL/well to T cell Activation Plate Anti-Human CD3 96-well plate (manufactured by Corning Inc., REF. 354725). Subsequently, 100 μL of a T-cell suspension adjusted to 2×10^5 cells/mL was added to each well (final DMSO concentration: 0.1%). Only DMSO was added to wells in the absence of the test compound. After incubation for 5 days in a carbon dioxide incubator, the culture supernatant was collected and stored at −20° C. until IL-17 content measurement.
In the IL-17 content measurement in the culture supernatant, a sandwich ELISA kit (Quantikine Human IL-17, manufactured by R&D Systems, Inc.) was used. The IL-17 content of each sample was calculated from the calibration curve of Standard IL-17 included in the kit. When the amount of IL-17 produced by the cocktail of various stimulants in the case of the addition of only DMSO was defined as 100%, the rate of inhibition of IL-17 production at each concentration of the test compound was calculated. The concentration of the test compound necessary for inhibiting 50% of IL-17 production (IC50 value) was calculated from the concentration of the added test compound and the rate of inhibition of IL-17 production by the test compound by using EXSUS (version 8.0.0 or version 8.0.1, manufactured by CAC Exicare Corp.).
A general note: ELISA stands for enzyme-linked immunosorbent assay.

With `CC1(C)c2[nH]nc(NC(=O)C3([Si](C)(C)C)CCC3)c2CN1C(=O)N[C@H](CO)c1ccccc1` [IV-114, (S)—N-(2-Hydroxy-1-phenylethyl)-6,6-dimethyl-3-[1-(trimethylsilyl)cyclobutanecarboxamido]-4,6-dihydropyrrolo[3,4-c]pyrazole-5(1H)-carboxamide], the half-maximal inhibitory concentration (IC50) in assay [1] was not above 500 nM.

The compound `CC[Si](C)(C)C1(C(=O)Nc2n[nH]c3c2CN(C(=O)N[C@H](CO)c2ccccc2)C3(C)C)CCC1` [IV-117, (S)-3-[1-(Ethyldimethylsilyl)cyclobutanecarboxamido]-N-(2-hydroxy-1-phenylethyl)-6,6-dimethyl-4,6-dihydropyrrolo[3,4-c]pyrazole-5(1H)-carboxamide] came in with a half-maximal inhibitory concentration (IC50) in assay [1] not above 500 nM.

For the compound `COC[C@@H](NC(=O)N1Cc2c(NC(=O)C3([Si](C)(C)C)CCC3)n[nH]c2C1(C)C)c1ccccc1` [IV-123, (S)—N-(2-Methoxy-1-phenylethyl)-6,6-dimethyl-3-[1-(trimethylsilyl)cyclobutanecarboxamido]-4,6-dihydropyrrolo[3,4-c]pyrazole-5(1H)-carboxamide], the IC50 in assay [1] and in assay [2] was not above 500 nM in each case.

In the case of `CC(C)(O)[C@@H](NC(=O)N1Cc2c(NC(=O)C3([Si](C)(C)C)CCC3)n[nH]c2C1(C)C)c1ccccc1` [IV-171, (S)—N-(2-Hydroxy-2-methyl-1-phenylpropyl)-6,6-dimethyl-3-[1-(trimethylsilyl)cyclobutanecarboxamido]-4,6-dihydropyrrolo[3,4-c]pyrazole-5(1H)-carboxamide], the IC50 in assay [1] and in assay [2] was not above 500 nM each time.

Consider `CC1(C)c2[nH]nc(NC(=O)C3([Si](C)(C)C)CCC3)c2CN1C(=O)N[C@H](CCO)c1ccccc1` [IV-227, (R)—N-(3-Hydroxy-1-phenylpropyl)-6,6-dimethyl-3-[1-(trimethylsilyl)cyclobutanecarboxamido]-4,6-dihydropyrrolo[3,4-c]pyrazole-5(1H)-carboxamide], for which the concentration for half-maximal inhibition (IC50) in assay [1] and in assay [2] was not above 500 nM throughout.

For `CC1(C)c2[nH]nc(NC(=O)C3([Si](C)(C)C)CCC3)c2CN1C(=O)N[C@H](CCCCO)c1ccccc1` [IV-291, (R)—N-(5-Hydroxy-1-phenylpentyl)-6,6-dimethyl-3-[1-(trimethylsilyl)cyclobutanecarboxamido]-4,6-dihydropyrrolo[3,4-c]pyrazole-5(1H)-carboxamide], in assay [1], the IC50 is not above 500 nM.

The compound `CC1(C)c2[nH]nc(NC(=O)C3([Si](C)(C)C)CCC3)c2CN1C(=O)NCCO` [IV-438, N-(2-Hydroxyethyl)-6,6-dimethyl-3-[1-(trimethylsilyl)cyclobutanecarboxamido]-4,6-dihydropyrrolo[3,4-c]pyrazole-5(1H)-carboxamide] came in with a half-maximal inhibitory concentration (IC50) in assay [1] not above 500 nM.

With `C[C@@H](CO)NC(=O)N1Cc2c(NC(=O)C3([Si](C)(C)C)CCC3)n[nH]c2C1(C)C` [IV-455, (S)—N-(1-Hydroxypropan-2-yl)-6,6-dimethyl-3-[1-(trimethylsilyl)cyclobutanecarboxamido]-4,6-dihydropyrrolo[3,4-c]pyrazole-5(1H)-carboxamide], in assay [1], the IC50 was not above 500 nM.

In the case of `CC(C)[C@@H](CO)NC(=O)N1Cc2c(NC(=O)C3([Si](C)(C)C)CCC3)n[nH]c2C1(C)C` [IV-475, (S)—N-(1-Hydroxy-3-methylbutan-2-yl)-6,6-dimethyl-3-[1-(trimethylsilyl)cyclobutanecarboxamido]-4,6-dihydropyrrolo[3,4-c]pyrazole-5(1H)-carboxamide], the IC50 in assay [1] was not above 500 nM.

Take `CC1(C)c2[nH]nc(NC(=O)C3([Si](C)(C)C)CCC3)c2CN1C(=O)N[C@H](CO)C1CCCCC1` [IV-495, (S)—N-(1-Cyclohexyl-2-hydroxyethyl)-6,6-dimethyl-3-[1-(trimethylsilyl)cyclobutanecarboxamido]-4,6-dihydropyrrolo[3,4-c]pyrazole-5(1H)-carboxamide]: in assay [1], the concentration for half-maximal inhibition (IC50) was not above 500 nM.

In the case of `CO[C@@H](C(=O)N1Cc2c(NC(=O)C3([Si](C)(C)C)CCC3)n[nH]c2C1(C)C)c1ccccc1` [IV-1175, (R)—N-[5-(2-Methoxy-2-phenylacetyl)-6,6-dimethyl-1,4,5,6-tetrahydropyrrolo[3,4-c]pyrazol-3-yl]-1-(trimethylsilyl)cyclobutanecarboxamide], the IC50 was not above 50 nM in assay [3] and not above 500 nM in assay [2].

As to `CC[Si](C)(C)C1(C(=O)Nc2n[nH]c3c2CN(C(=O)[C@H](OC)c2ccccc2)C3(C)C)CCC1` [IV-1178, (R)-1-(Ethyldimethylsilyl)-N-[5-(2-methoxy-2-phenylacetyl)-6,6-dimethyl-1,4,5,6-tetrahydropyrrolo[3,4-c]pyrazol-3-yl] cyclobutanecarboxamide], the IC50 in assay [3] is not above 50 nM; in assay [2] it was not above 500 nM.

As for `CC1(C)c2[nH]nc(NC(=O)C3([Si](C)(C)C)CCC3)c2CN1C(=O)[C@H](OC(F)F)c1ccccc1` [IV-1180, (R)—N-{5-[2-(Difluoromethoxy)-2-phenylacetyl]-6,6-dimethyl-1,4,5,6-tetrahydropyrrolo[3,4-c]pyrazol-3-yl}-1-(trimethylsilyl)cyclobutanecarboxamide], the figures for the half-maximal inhibitory concentration (IC50) in assay [3] and in assay [2] were not above 50 nM and not above 500 nM, respectively.

`CCO[C@@H](C(=O)N1Cc2c(NC(=O)C3([Si](C)(C)C)CCC3)n[nH]c2C1(C)C)c1ccccc1` [IV-1188, (R)—N-[5-(2-Ethoxy-2-phenylacetyl)-6,6-dimethyl-1,4,5,6-tetrahydropyrrolo[3,4-c]pyrazol-3-yl]-1-(trimethylsilyl)cyclobutanecarboxamide]: the values for the IC50 in assay [3] and in assay [2] were not above 50 nM and not above 500 nM, respectively.
